The kinase profiling compilation of Christmann-Franck et al. (2016)

Tests used:
Experiment in all cases: KINOMEscan competition binding
PDGFRA (human) = PDGFRA (human) (UniProt P16234); conditions: compound 1.0 µM
RPS6KA3 KD1 (human) = RPS6KA3 KD1 (human) (UniProt P51812); conditions: compound 1.0 µM
CDK4 CCND1 (human) = CDK4 CCND1 (human) (UniProt P11802+P24385); conditions: compound 1.0 µM
PAK2 (human) = PAK2 (human) (UniProt Q13177); conditions: compound 1.0 µM
FGR (human) = FGR (human) (UniProt P09769); conditions: compound 1.0 µM
CDK4 CCND3 (human) = CDK4 CCND3 (human) (UniProt P11802+P30281); conditions: compound 1.0 µM
ULK2 (human) = ULK2 (human) (UniProt Q8IYT8); conditions: compound 1.0 µM
RPS6KA6 KD1 (human) = RPS6KA6 KD1 (human) (UniProt Q9UK32); conditions: compound 1.0 µM
STK32A (human) = STK32A (human) (UniProt Q8WU08); conditions: compound 1.0 µM
CAMK2G (human) = CAMK2G (human) (UniProt Q13555); conditions: compound 1.0 µM
ADCK3 (human) = ADCK3 (human) (UniProt Q8NI60); conditions: compound 1.0 µM
WEE1 (human) = WEE1 (human) (UniProt P30291); conditions: compound 1.0 µM
MERTK (human) = MERTK (human) (UniProt Q12866); conditions: compound 1.0 µM
RPS6KA2 KD1 (human) = RPS6KA2 KD1 (human) (UniProt Q15349); conditions: compound 1.0 µM
MAP4K1 (human) = MAP4K1 (human) (UniProt Q92918); conditions: compound 1.0 µM
EPHB6 (human) = EPHB6 (human) (UniProt O15197); conditions: compound 1.0 µM
EPHA5 (human) = EPHA5 (human) (UniProt P54756); conditions: compound 1.0 µM
PIM2 (human) = PIM2 (human) (UniProt Q9P1W9); conditions: compound 1.0 µM
NLK (human) = NLK (human) (UniProt Q9UBE8); conditions: compound 1.0 µM
CDKL5 (human) = CDKL5 (human) (UniProt O76039); conditions: for kinase still bound, per cent of control: compound 1.0 µM
SGK3 (human) = SGK3 (human) (UniProt Q96BR1); conditions: compound 1.0 µM
MYLK (human) = MYLK (human) (UniProt Q15746); conditions: compound 1.0 µM
RPS6KA5 KD1 (human) = RPS6KA5 KD1 (human) (UniProt O75582); conditions: compound 1.0 µM
GRK7 (human) = GRK7 (human) (UniProt Q8WTQ7); conditions: compound 1.0 µM
FER (human) = FER (human) (UniProt P16591); conditions: compound 1.0 µM
MARK4 (human) = MARK4 (human) (UniProt Q96L34); conditions: compound 1.0 µM
TESK1 (human) = TESK1 (human) (UniProt Q15569); conditions: compound 1.0 µM
HCK (human) = HCK (human) (UniProt P08631); conditions: compound 1.0 µM
PHKG1 (human) = PHKG1 (human) (UniProt Q16816); conditions: compound 1.0 µM
BRSK2 (human) = BRSK2 (human) (UniProt Q8IWQ3); conditions: compound 1.0 µM
MAP4K3 (human) = MAP4K3 (human) (UniProt Q8IVH8); conditions: compound 1.0 µM
PRKCE (human) = PRKCE (human) (UniProt Q02156); conditions: compound 1.0 µM
ALK (human) = ALK (human) (UniProt Q9UM73); conditions: compound 1.0 µM
LIMK2 (human) = LIMK2 (human) (UniProt P53671); conditions: compound 1.0 µM
[1] = tested on: FLT3 (human), P36888 [R834Q]; conditions: compound 1.0 µM
MAP2K5 (human) = MAP2K5 (human) (UniProt Q13163); conditions: compound 1.0 µM
CPK1 (P.falciparum) = conditions: compound 1.0 µM
LIMK1 (human) = LIMK1 (human) (UniProt P53667); conditions: compound 1.0 µM
PIP4K2B (human) = PIP4K2B (human) (UniProt P78356); conditions: compound 1.0 µM
KDR (human) = KDR (human) (UniProt P35968); conditions: compound 1.0 µM
ROCK2 (human) = ROCK2 (human) (UniProt O75116); conditions: compound 1.0 µM
DDR2 (human) = DDR2 (human) (UniProt Q16832); conditions: compound 1.0 µM
SRPK2 (human) = SRPK2 (human) (UniProt P78362); conditions: compound 1.0 µM

Sequence of CDKL5 (human) (O76039 whole entry, looked up): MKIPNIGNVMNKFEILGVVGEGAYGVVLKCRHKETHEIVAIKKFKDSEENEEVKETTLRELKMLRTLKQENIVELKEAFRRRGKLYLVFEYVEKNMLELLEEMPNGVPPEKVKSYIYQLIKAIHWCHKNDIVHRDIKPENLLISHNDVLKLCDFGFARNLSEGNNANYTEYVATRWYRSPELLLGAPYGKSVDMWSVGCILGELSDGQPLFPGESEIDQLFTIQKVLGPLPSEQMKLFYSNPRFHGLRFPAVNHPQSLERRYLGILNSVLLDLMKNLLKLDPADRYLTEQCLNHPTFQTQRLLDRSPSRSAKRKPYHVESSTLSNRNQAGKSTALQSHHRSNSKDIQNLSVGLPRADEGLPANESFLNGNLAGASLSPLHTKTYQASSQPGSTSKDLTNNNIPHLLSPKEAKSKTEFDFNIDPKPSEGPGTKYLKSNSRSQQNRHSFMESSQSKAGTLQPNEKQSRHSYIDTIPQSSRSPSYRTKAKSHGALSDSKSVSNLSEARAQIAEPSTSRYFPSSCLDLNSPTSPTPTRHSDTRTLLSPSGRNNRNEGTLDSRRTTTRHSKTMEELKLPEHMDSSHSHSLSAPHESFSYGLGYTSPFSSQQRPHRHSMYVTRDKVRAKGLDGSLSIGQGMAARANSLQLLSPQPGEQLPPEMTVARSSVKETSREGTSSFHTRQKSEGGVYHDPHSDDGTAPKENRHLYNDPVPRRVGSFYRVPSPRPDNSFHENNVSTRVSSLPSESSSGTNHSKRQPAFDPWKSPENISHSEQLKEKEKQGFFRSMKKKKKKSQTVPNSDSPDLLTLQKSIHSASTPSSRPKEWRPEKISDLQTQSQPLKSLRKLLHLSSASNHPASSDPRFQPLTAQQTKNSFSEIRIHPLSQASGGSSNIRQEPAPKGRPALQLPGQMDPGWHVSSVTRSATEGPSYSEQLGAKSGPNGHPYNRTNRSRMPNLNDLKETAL
Sequence of STK32A (human) (Q8WU08 whole entry, looked up): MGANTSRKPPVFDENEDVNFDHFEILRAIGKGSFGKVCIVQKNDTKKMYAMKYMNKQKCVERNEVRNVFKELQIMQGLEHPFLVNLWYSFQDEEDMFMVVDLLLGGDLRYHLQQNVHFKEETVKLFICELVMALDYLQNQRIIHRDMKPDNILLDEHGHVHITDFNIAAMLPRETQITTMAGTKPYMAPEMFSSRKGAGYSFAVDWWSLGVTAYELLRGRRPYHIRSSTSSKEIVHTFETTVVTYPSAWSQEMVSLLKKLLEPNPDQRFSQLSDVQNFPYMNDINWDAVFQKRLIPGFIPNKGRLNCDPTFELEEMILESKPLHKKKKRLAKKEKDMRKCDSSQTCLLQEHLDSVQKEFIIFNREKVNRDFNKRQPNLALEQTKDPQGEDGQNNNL
Sequence of EPHA5 (human) (P54756 whole entry, looked up): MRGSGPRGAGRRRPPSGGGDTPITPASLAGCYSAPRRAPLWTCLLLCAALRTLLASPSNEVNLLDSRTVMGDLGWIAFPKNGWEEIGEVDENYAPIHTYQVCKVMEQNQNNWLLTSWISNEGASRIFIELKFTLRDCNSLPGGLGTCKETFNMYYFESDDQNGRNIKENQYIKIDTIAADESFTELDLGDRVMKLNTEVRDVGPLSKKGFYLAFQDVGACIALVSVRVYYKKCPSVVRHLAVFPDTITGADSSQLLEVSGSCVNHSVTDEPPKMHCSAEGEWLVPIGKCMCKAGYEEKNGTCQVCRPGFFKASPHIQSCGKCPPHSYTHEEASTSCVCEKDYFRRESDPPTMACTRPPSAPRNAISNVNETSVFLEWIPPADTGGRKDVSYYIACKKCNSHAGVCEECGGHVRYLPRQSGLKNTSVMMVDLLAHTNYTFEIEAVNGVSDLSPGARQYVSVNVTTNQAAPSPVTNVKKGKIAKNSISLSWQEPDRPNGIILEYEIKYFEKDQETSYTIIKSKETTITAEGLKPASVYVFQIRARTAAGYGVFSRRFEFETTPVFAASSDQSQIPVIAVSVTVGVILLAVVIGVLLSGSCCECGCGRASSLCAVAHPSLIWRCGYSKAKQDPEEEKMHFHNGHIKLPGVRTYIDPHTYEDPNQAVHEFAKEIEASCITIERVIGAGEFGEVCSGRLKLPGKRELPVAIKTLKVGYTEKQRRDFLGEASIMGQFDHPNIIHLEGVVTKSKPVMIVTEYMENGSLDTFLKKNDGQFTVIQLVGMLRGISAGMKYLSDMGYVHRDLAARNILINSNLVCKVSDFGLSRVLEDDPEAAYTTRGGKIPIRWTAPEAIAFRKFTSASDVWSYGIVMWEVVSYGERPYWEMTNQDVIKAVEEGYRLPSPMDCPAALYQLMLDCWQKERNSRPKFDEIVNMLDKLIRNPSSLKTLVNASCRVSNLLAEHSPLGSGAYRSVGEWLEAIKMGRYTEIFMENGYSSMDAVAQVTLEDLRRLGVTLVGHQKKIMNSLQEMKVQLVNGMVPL
Sequence of SGK3 (human) (Q96BR1 whole entry, looked up): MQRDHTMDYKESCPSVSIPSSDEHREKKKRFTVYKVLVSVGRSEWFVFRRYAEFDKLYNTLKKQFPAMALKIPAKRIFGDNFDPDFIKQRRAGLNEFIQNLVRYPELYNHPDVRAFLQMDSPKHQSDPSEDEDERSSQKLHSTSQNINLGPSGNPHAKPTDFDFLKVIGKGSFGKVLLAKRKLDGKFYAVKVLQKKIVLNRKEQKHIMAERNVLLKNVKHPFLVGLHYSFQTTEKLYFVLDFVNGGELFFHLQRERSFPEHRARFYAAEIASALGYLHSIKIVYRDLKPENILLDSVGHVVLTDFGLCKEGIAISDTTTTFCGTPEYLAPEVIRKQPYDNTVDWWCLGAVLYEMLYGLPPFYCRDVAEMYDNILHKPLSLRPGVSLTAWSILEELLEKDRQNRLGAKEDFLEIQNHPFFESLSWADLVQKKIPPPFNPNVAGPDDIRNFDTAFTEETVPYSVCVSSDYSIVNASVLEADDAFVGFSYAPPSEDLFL
Sequence of PRKCE (human) (Q02156 whole entry, looked up): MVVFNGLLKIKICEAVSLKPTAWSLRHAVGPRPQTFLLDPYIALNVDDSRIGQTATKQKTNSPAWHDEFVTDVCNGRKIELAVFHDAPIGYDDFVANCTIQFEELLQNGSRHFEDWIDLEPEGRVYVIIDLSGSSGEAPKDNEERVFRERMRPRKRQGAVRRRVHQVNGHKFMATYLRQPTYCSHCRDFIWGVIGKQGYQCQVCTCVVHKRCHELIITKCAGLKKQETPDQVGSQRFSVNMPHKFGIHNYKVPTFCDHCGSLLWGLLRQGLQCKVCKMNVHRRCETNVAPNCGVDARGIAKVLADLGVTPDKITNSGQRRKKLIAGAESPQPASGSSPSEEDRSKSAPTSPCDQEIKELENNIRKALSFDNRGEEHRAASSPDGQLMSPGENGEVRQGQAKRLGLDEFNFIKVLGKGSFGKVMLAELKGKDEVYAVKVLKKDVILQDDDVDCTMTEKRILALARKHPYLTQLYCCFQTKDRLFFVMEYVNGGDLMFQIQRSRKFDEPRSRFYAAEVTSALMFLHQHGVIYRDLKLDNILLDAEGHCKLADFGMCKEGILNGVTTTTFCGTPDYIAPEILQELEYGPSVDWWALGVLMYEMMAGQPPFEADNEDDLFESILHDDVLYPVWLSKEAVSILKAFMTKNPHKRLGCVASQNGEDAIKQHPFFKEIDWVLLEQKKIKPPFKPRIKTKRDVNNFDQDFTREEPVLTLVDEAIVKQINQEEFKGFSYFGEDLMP
Sequence of MERTK (human) (Q12866 whole entry, looked up): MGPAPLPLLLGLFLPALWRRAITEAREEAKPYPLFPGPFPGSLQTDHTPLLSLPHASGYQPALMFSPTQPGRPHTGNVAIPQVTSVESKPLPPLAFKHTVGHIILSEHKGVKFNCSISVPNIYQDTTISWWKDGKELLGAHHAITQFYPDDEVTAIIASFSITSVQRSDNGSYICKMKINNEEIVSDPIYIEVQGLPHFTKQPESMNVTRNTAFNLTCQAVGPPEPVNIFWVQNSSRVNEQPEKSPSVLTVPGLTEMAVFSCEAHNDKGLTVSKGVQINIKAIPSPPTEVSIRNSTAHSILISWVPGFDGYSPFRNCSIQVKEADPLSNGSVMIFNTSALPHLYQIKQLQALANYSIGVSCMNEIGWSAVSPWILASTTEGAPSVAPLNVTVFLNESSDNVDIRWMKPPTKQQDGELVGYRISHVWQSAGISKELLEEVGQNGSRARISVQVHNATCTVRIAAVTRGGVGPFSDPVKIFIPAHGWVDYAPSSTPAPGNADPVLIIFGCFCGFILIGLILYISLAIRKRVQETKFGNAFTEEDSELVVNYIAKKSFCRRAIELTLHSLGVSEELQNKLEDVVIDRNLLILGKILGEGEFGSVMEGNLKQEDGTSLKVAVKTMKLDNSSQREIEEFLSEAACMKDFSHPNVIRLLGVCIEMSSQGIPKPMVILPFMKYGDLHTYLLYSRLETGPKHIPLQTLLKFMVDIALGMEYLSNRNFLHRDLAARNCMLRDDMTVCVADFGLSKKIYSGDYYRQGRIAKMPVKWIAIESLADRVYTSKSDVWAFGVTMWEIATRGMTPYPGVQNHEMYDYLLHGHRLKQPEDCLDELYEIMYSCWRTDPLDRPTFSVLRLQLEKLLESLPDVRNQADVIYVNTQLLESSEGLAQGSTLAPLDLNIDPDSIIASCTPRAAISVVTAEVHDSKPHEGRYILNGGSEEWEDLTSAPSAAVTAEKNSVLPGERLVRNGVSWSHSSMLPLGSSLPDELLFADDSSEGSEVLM
Sequence of PIM2 (human) (Q9P1W9 whole entry, looked up): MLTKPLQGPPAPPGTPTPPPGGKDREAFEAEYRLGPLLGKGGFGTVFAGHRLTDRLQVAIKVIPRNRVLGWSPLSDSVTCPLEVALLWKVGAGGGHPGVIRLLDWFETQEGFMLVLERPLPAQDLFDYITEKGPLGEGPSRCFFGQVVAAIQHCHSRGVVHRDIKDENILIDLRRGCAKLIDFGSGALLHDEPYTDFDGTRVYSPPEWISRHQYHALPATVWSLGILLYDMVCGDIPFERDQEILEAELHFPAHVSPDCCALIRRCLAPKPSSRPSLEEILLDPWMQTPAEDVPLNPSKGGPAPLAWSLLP

SMILES: CN(C)C/C=C/C(=O)Nc1cccc(C(=O)Nc2ccc(Nc3nccc(-c4cccnc4)n3)cc2)c1
- kinase still bound, per cent of control (PDGFRA (human)): 67%
- kinase still bound, per cent of control (RPS6KA3 KD1 (human)): 100%
- kinase still bound, per cent of control (CDK4 CCND1 (human)): 61%
- kinase still bound, per cent of control (PAK2 (human)): 87%
- kinase still bound, per cent of control (FGR (human)): 69%
- kinase still bound, per cent of control (CDK4 CCND3 (human)): 61%
- kinase still bound, per cent of control (ULK2 (human)): 86%
- kinase still bound, per cent of control (RPS6KA6 KD1 (human)): 88%
- kinase still bound, per cent of control (STK32A (human)): 100%
- kinase still bound, per cent of control (CAMK2G (human)): 99%
- kinase still bound, per cent of control (ADCK3 (human)): 58%
- kinase still bound, per cent of control (WEE1 (human)): 84%
- kinase still bound, per cent of control (MERTK (human)): 100%
- kinase still bound, per cent of control (RPS6KA2 KD1 (human)): 100%
- kinase still bound, per cent of control (MAP4K1 (human)): 79%
- kinase still bound, per cent of control (EPHB6 (human)): 18%
- kinase still bound, per cent of control (EPHA5 (human)): 96%
- kinase still bound, per cent of control (PIM2 (human)): 100%
- kinase still bound, per cent of control (NLK (human)): 81%
- Kd (CDKL5 (human)): 0.034 µM
- kinase still bound, per cent of control (CDKL5 (human)): 1.7%
- kinase still bound, per cent of control (SGK3 (human)): 100%
- kinase still bound, per cent of control (MYLK (human)): 100%
- kinase still bound, per cent of control (RPS6KA5 KD1 (human)): 100%
- kinase still bound, per cent of control (GRK7 (human)): 86%
- kinase still bound, per cent of control (FER (human)): 100%
- kinase still bound, per cent of control (MARK4 (human)): 40%
- kinase still bound, per cent of control (TESK1 (human)): 88%
- kinase still bound, per cent of control (HCK (human)): 100%
- kinase still bound, per cent of control (PHKG1 (human)): 91%
- kinase still bound, per cent of control (BRSK2 (human)): 98%
- kinase still bound, per cent of control (MAP4K3 (human)): 38%
- kinase still bound, per cent of control (PRKCE (human)): 61%
- kinase still bound, per cent of control (ALK (human)): 100%
- kinase still bound, per cent of control (LIMK2 (human)): 82%
- kinase still bound, per cent of control [1]: 74%
- kinase still bound, per cent of control (MAP2K5 (human)): 6.8%
- kinase still bound, per cent of control (CPK1 (P.falciparum)): 77%
- kinase still bound, per cent of control (LIMK1 (human)): 71%
- kinase still bound, per cent of control (PIP4K2B (human)): 18%
- kinase still bound, per cent of control (KDR (human)): 100%
- kinase still bound, per cent of control (ROCK2 (human)): 16%
- kinase still bound, per cent of control (DDR2 (human)): 53%
- kinase still bound, per cent of control (SRPK2 (human)): 70%

SMILES: CN(C)C/C=C/C(=O)Nc1cccc(C(=O)Nc2ccc(Nc3nccc(-c4c(-c5ccccc5)nn5ccccc45)n3)cc2)c1
- kinase still bound, per cent of control (PDGFRA (human)): 4.4%
- kinase still bound, per cent of control (RPS6KA3 KD1 (human)): 50%
- kinase still bound, per cent of control (CDK4 CCND1 (human)): 79%
- kinase still bound, per cent of control (PAK2 (human)): 88%
- kinase still bound, per cent of control (FGR (human)): 10%
- kinase still bound, per cent of control (CDK4 CCND3 (human)): 81%
- kinase still bound, per cent of control (ULK2 (human)): 100%
- kinase still bound, per cent of control (RPS6KA6 KD1 (human)): 91%
- kinase still bound, per cent of control (STK32A (human)): 35%
- kinase still bound, per cent of control (CAMK2G (human)): 100%
- kinase still bound, per cent of control (ADCK3 (human)): 0%
- kinase still bound, per cent of control (WEE1 (human)): 100%
- kinase still bound, per cent of control (MERTK (human)): 49%
- kinase still bound, per cent of control (RPS6KA2 KD1 (human)): 86%
- kinase still bound, per cent of control (MAP4K1 (human)): 69%
- kinase still bound, per cent of control (EPHB6 (human)): 9.4%
- kinase still bound, per cent of control (EPHA5 (human)): 98%
- kinase still bound, per cent of control (PIM2 (human)): 100%
- kinase still bound, per cent of control (NLK (human)): 12%
- kinase still bound, per cent of control (CDKL5 (human)): 100%
- kinase still bound, per cent of control (SGK3 (human)): 91%
- kinase still bound, per cent of control (MYLK (human)): 77%
- kinase still bound, per cent of control (RPS6KA5 KD1 (human)): 100%
- kinase still bound, per cent of control (GRK7 (human)): 86%
- kinase still bound, per cent of control (FER (human)): 87%
- kinase still bound, per cent of control (MARK4 (human)): 100%
- kinase still bound, per cent of control (TESK1 (human)): 99%
- kinase still bound, per cent of control (HCK (human)): 23%
- kinase still bound, per cent of control (PHKG1 (human)): 100%
- kinase still bound, per cent of control (BRSK2 (human)): 100%
- kinase still bound, per cent of control (MAP4K3 (human)): 59%
- kinase still bound, per cent of control (PRKCE (human)): 93%
- kinase still bound, per cent of control (ALK (human)): 100%
- kinase still bound, per cent of control (LIMK2 (human)): 100%
- kinase still bound, per cent of control [1]: 68%
- kinase still bound, per cent of control (MAP2K5 (human)): 23%
- kinase still bound, per cent of control (CPK1 (P.falciparum)): 0.6%
- kinase still bound, per cent of control (LIMK1 (human)): 100%
- kinase still bound, per cent of control (PIP4K2B (human)): 100%
- kinase still bound, per cent of control (KDR (human)): 17%
- kinase still bound, per cent of control (ROCK2 (human)): 75%
- kinase still bound, per cent of control (DDR2 (human)): 9%
- kinase still bound, per cent of control (SRPK2 (human)): 85%
